The structures appear in SMILES notation.

Here are results for two compounds from patent publication US20130224126A1, “Oral Care Product and Methods of Use and Manufacture Thereof” (Colgate-Palmolive Company, priority 2010, published 2013).

In the assay the test system is bacteria/yeast and mold. As to the kind of experiment: Antimicrobial Preservation Effectiveness Test (micro robustness), double challenge test. Conditions: in the mouthwash formulations, separately or in combination. Format: cell-based. The method, then: The Antimicrobial Preservation Effectiveness Test is used to determine the antimicrobial preservation effectiveness of water-based product formulations by means of a double challenge test. Products are developed to withstand microbial challenges introduced by normal consumer use. The test is run on an aged sample (13 weeks, 40° C.). The test uses two pools of microorganisms: bacteria/yeast and mold. The product is challenged at a 1% level at day 0 and at day 7. Reduction of the inoculum is monitored over a 28 day period. The following are the acceptance criteria for mouth wash formulas. • Bacteria and yeast must show a 99.9% reduction (3 logs) of the bacterial inoculum as determined by plate count on day 7 following each inoculation. No increase after day 7 of the second inoculation and for the remainder of the test within normal variation of the data. • Mold must show a 90.0% reduction (1 log) of the mold inoculum as determined by the plate count on day 14 following the second inoculation (day 21). No increase from day 14 to day 21 of the second inoculation of the test within normal variation of the data.

For the compound `Cn1sccc1=O` [MIT, methylisothiazolinone], the microbial control entry is “acceptable”.
As for `OCc1ccccc1` [Benzyl alcohol, benzyl alcohol], the entry is “acceptable”.
